Experiment [1] has as its system patients with relapsing MS. Description: Phase II trial in relapsing MS: depressive symptoms by Beck Depression Inventory second edition (BDI-II). The settings on record: for BDI-II score, change from baseline during core study: 6 months core study. It counts as in vivo, human. How it is done:
In this study, depressive symptoms were assessed by means of the Beck Depression Inventory second edition (BDI-II).
Patients with relapsing MS (relapsing-remitting or secondary progressive) were randomized to receive placebo or FTY720 1.25 or 5 mg/day, for 6 months (the core study). At the end of this period, placebo-treated patients were re-randomized to one of the two FTY720 doses, while those originally randomized to FTY720 continued treatment at the same doses. After approximately 18-24 months, patients receiving FTY720 5 mg, were switched to 1.25 mg in view of evidence that the higher dose conferred no efficacy benefit over the lower dose.
The BDI-II was administered at baseline, and at 3 and 6 months during the core study and at 12 and 24 months during the extension phase (i.e. 6 and 18 months after the start of the extension phase). This is a 21-item self-report scale measuring various symptoms and attitudes associated with depression. Respondents rate depressive symptoms experienced during the past two weeks on a 4-point scale, coded 0 to 3 by increasing order of severity. A total score across all 21 items can be generated, with lower total scores indicating lower overall severity of depressive symptoms. BDI-II total scores of 14 or above are indicative of clinical depression. Ny reduction in the BDI-II score indicated an improvement in depression.
Of the 281 patients originally randomized to treatment, 255 completed the core study. BDI-II scores at baseline and 6 months were available in 239 patients.

Experiment [2] relates to BDNF. Description: In vivo S1P receptor modulator induced BDNF production (Western blot of cortex). The settings on record: female DA rats. More on the design: species or system rat. The text has this:
Shown on the y-axis is the relative intensity of BDNF signal of animals treated with FTY720 vs control animals that had received vehicle (i.e., ratio of signal from FTY720-treated rats divided by signal from vehicle-treated rats, n=3 rats/group). On the x axis, the first two bars come from the frontal cortex, the second two from the parietal cortex and in each case the white bar represents the vehicle treated animals and the black bar represents the FTY720 treated animals.
N=3 animals each were treated with either vehicle, 0.1 mg/kg/d FTY720, 0.3 mg/kg/d FTY720 or 1 mg/kg/d FTY720.
Female DA rats were treated for 9 days (5 days, 2 day pause, 4 days) with FTY720 p.o.
Expt 1: 0.3 mg/kg/d vs. vehicle.
One day after the last treatment, the rats were perfused with ice-cold PBS and different CNS regions were isolated.
Female DA rats were treated for 9 days (5 days, 2 day pause, 4 days) with FTY720 p.o. 0.1; 0.3 or 1 mg/kg/d vs vehicle
Background: Immunoblotting shows a protein as a band on a membrane.

In experiment [3] the test system is patients with relapsing MS. The following applies: cited from earlier work.
Setting [4] is: 281 patients with relapsing MS, 6 months, 1.25 and 5 mg once daily.

With `CCCCCCCCc1ccc(CCC(N)(CO)CO)cc1` [FTY720, 2-amino-2-[2-(4-octylphenyl)ethyl]propane-1,3-diol], the “BDI-II score, change from baseline during core study” value in experiment [1] (1.25 mg/day) is on record as “decreased from baseline”. For the same molecule, the “change in BDI-II scores from baseline vs placebo-treated patients” value in experiment [1] (1.25 mg/day, at 6 months) is reported as “significantly greater”. For the same molecule, the “BDI-II score, change from baseline during core study” value in experiment [1] (5.0 mg/day) was “remained consistent”. Also, in experiment [1] (1.25 vs 5.0 mg/day, 5% level), the “difference in changes in BDI-II scores between the two doses” value is on record as “not significant”. The “BDNF in the cortex (relative intensity of BDNF signal vs vehicle)” value in experiment [2] (9-day treatment, 0.3 mg/kg/d p.o., frontal and parietal cortex, FIG. 1) was “induction of BDNF”. Also, the “BDNF in the cortex, multiple doses” value in experiment [2] (9-day treatment, 0.1, 0.3 or 1 mg/kg/d p.o., FIGS. 2A-2B) is given as “induction of BDNF”. Besides, in experiment [3] (setting [4]), the “reduction of annualized relapse rate compared with placebo” value is listed as “more than 50%” and the “reduction of gadolinium-enhanced MRI lesions compared with placebo” value is “up to 80%”. The “low disease activity on MRI and relapses during dose-blinded extension phase” value in experiment [3] (patients treated for up to 24 months) was “sustained”.

Values taken from patent US9265754B2, “Use of 1-{4-[1-(4-cyclohexyl-3-trifluoromethyl-benzyloxyimino)-ethyl]-2-ethyl-benzyl}-azetidine-3-carboxylic acid in treating symptoms associated with rett syndrome” (Novartis AG, priority 2007, dated 2016).
